Data reported in PubChem BioAssay (NCI).
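Method: 48-hour compound exposure of cells in 96-well plates, five concentrations, linear interpolation of endpoints. TGI: concentration producing complete growth inhibition.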

What follows are compounds tested on NCI-H460 lung (assay: growth of human tumour cells (NCI), 48 h).

SMILES	TGI [µM]
CCOC(=O)C1=C(C)N(C)C23OC4(C(=O)OC)CC2c2ccccc2C1N3C4=O (stereo not given)	> 100
CC(=O)c1c2c(cc3c1CC1(Cc4ccccc4C1=O)C3)CCC2 (stereo not given)	> 100
Cc1cccc(-c2nc3ccc([N+](=O)[O-])cc3c(=O)o2)c1	> 100
O=C1N=c2ccccc2=C1c1c(O)[nH]c2ccccc12	59.3
CCCCCCCCCCCCCCCCCCNc1ccn(C2OC(COP(=O)(O)OCC3OC(n4cc(C)c(=O)[nH]c4=O)CC3O)C(O)C2O)c(=O)n1 (stereo not given)	36.3
NC(N)=NCCN=C(N)N	> 100
COC(=O)C(C)(NC(=O)C(CC(=O)OC(C)(C)C)NC(=O)OC(C)(C)C)c1ccccc1 (stereo not given)	> 100
CCOC(=O)C1=CC(C)(C(=O)OCC)Nc2c(nc(OC)n(C)c2=O)N1 (stereo not given)	> 10
Oc1ccc2ccccc2c1/C=C/c1ccc2c(Br)cc(Br)c(O)c2n1	16.2
C=C1CC(c2ccc(OCCCN3C(=O)c4ccccc4C3=O)c(OC)c2)OC1=O (stereo not given)	14.5
O=[N+]([O-])c1ccc(/C=N/n2c(CO)nc3ccccc32)o1	16.3

What follows are compounds tested on CCRF-CEM leukemia (assay: growth of human tumour cells (NCI), 48 h).

SMILES	TGI [µM]
CCOC(=O)C1=C(C)N(C)C23OC4(C(=O)OC)CC2c2ccccc2C1N3C4=O (stereo not given)	> 100
CC(=O)c1c2c(cc3c1CC1(Cc4ccccc4C1=O)C3)CCC2 (stereo not given)	> 100
Cc1cccc(-c2nc3ccc([N+](=O)[O-])cc3c(=O)o2)c1	96.7
O=C1N=c2ccccc2=C1c1c(O)[nH]c2ccccc12	> 100
CCCCCCCCCCCCCCCCCCNc1ccn(C2OC(COP(=O)(O)OCC3OC(n4cc(C)c(=O)[nH]c4=O)CC3O)C(O)C2O)c(=O)n1 (stereo not given)	23.6
NC(N)=NCCN=C(N)N	> 100
COC(=O)C(C)(NC(=O)C(CC(=O)OC(C)(C)C)NC(=O)OC(C)(C)C)c1ccccc1 (stereo not given)	> 100
CCOC(=O)C1=CC(C)(C(=O)OCC)Nc2c(nc(OC)n(C)c2=O)N1 (stereo not given)	> 10
Oc1ccc2ccccc2c1/C=C/c1ccc2c(Br)cc(Br)c(O)c2n1	15.6
C=C1CC(c2ccc(OCCCN3C(=O)c4ccccc4C3=O)c(OC)c2)OC1=O (stereo not given)	3.79
O=[N+]([O-])c1ccc(/C=N/n2c(CO)nc3ccccc32)o1	36.8

Each compound was assayed on OVCAR-8 ovarian (assay: growth of human tumour cells (NCI), 48 h).

SMILES	TGI [µM]
CCOC(=O)C1=C(C)N(C)C23OC4(C(=O)OC)CC2c2ccccc2C1N3C4=O (stereo not given)	> 100
CC(=O)c1c2c(cc3c1CC1(Cc4ccccc4C1=O)C3)CCC2 (stereo not given)	89.1
Cc1cccc(-c2nc3ccc([N+](=O)[O-])cc3c(=O)o2)c1	> 100
O=C1N=c2ccccc2=C1c1c(O)[nH]c2ccccc12	66.7
CCCCCCCCCCCCCCCCCCNc1ccn(C2OC(COP(=O)(O)OCC3OC(n4cc(C)c(=O)[nH]c4=O)CC3O)C(O)C2O)c(=O)n1 (stereo not given)	31.6
NC(N)=NCCN=C(N)N	> 100
COC(=O)C(C)(NC(=O)C(CC(=O)OC(C)(C)C)NC(=O)OC(C)(C)C)c1ccccc1 (stereo not given)	> 100
CCOC(=O)C1=CC(C)(C(=O)OCC)Nc2c(nc(OC)n(C)c2=O)N1 (stereo not given)	> 10
Oc1ccc2ccccc2c1/C=C/c1ccc2c(Br)cc(Br)c(O)c2n1	20.1
C=C1CC(c2ccc(OCCCN3C(=O)c4ccccc4C3=O)c(OC)c2)OC1=O (stereo not given)	15.1
O=[N+]([O-])c1ccc(/C=N/n2c(CO)nc3ccccc32)o1	25.3

Each compound was assayed on SW-620 colon (assay: growth of human tumour cells (NCI), 48 h).

SMILES	TGI [µM]
CCOC(=O)C1=C(C)N(C)C23OC4(C(=O)OC)CC2c2ccccc2C1N3C4=O (stereo not given)	> 100
CC(=O)c1c2c(cc3c1CC1(Cc4ccccc4C1=O)C3)CCC2 (stereo not given)	> 100
Cc1cccc(-c2nc3ccc([N+](=O)[O-])cc3c(=O)o2)c1	> 100
O=C1N=c2ccccc2=C1c1c(O)[nH]c2ccccc12	> 100
CCCCCCCCCCCCCCCCCCNc1ccn(C2OC(COP(=O)(O)OCC3OC(n4cc(C)c(=O)[nH]c4=O)CC3O)C(O)C2O)c(=O)n1 (stereo not given)	28.5
NC(N)=NCCN=C(N)N	> 100
COC(=O)C(C)(NC(=O)C(CC(=O)OC(C)(C)C)NC(=O)OC(C)(C)C)c1ccccc1 (stereo not given)	> 100
CCOC(=O)C1=CC(C)(C(=O)OCC)Nc2c(nc(OC)n(C)c2=O)N1 (stereo not given)	> 10
Oc1ccc2ccccc2c1/C=C/c1ccc2c(Br)cc(Br)c(O)c2n1	25.1
C=C1CC(c2ccc(OCCCN3C(=O)c4ccccc4C3=O)c(OC)c2)OC1=O (stereo not given)	4.75
O=[N+]([O-])c1ccc(/C=N/n2c(CO)nc3ccccc32)o1	29.1

These compounds were tested on MCF7 breast (assay: growth of human tumour cells (NCI), 48 h).

SMILES	TGI [µM]
CCOC(=O)C1=C(C)N(C)C23OC4(C(=O)OC)CC2c2ccccc2C1N3C4=O (stereo not given)	> 100
CC(=O)c1c2c(cc3c1CC1(Cc4ccccc4C1=O)C3)CCC2 (stereo not given)	44.3
Cc1cccc(-c2nc3ccc([N+](=O)[O-])cc3c(=O)o2)c1	> 100
O=C1N=c2ccccc2=C1c1c(O)[nH]c2ccccc12	25.3
CCCCCCCCCCCCCCCCCCNc1ccn(C2OC(COP(=O)(O)OCC3OC(n4cc(C)c(=O)[nH]c4=O)CC3O)C(O)C2O)c(=O)n1 (stereo not given)	> 100
NC(N)=NCCN=C(N)N	> 100
COC(=O)C(C)(NC(=O)C(CC(=O)OC(C)(C)C)NC(=O)OC(C)(C)C)c1ccccc1 (stereo not given)	> 100
CCOC(=O)C1=CC(C)(C(=O)OCC)Nc2c(nc(OC)n(C)c2=O)N1 (stereo not given)	> 10
Oc1ccc2ccccc2c1/C=C/c1ccc2c(Br)cc(Br)c(O)c2n1	14.5
C=C1CC(c2ccc(OCCCN3C(=O)c4ccccc4C3=O)c(OC)c2)OC1=O (stereo not given)	0.48
O=[N+]([O-])c1ccc(/C=N/n2c(CO)nc3ccccc32)o1	15.2
